Laboratory results from patent publication US11976064B2, “Toll-like receptor agonists” (Pfizer Inc., priority 2019, dated 2024).

How the values were obtained:
[1] = target: T1, human toll like receptor 7 (hTLR7) (Homo sapiens, UniProt Q9NYK1); assay: hTLR7 cell functional assay (HEK-Blue hTLR7 SEAP reporter); assay type: cell-based; conditions: HEK293 cells stably overexpressing hTLR7, SEAP reporter; geometric mean when tested more than once
T1 construct: host or cells: HEK293 (HEK-Blue hTLR7)
T1 sequence (Q9NYK1 27-1049): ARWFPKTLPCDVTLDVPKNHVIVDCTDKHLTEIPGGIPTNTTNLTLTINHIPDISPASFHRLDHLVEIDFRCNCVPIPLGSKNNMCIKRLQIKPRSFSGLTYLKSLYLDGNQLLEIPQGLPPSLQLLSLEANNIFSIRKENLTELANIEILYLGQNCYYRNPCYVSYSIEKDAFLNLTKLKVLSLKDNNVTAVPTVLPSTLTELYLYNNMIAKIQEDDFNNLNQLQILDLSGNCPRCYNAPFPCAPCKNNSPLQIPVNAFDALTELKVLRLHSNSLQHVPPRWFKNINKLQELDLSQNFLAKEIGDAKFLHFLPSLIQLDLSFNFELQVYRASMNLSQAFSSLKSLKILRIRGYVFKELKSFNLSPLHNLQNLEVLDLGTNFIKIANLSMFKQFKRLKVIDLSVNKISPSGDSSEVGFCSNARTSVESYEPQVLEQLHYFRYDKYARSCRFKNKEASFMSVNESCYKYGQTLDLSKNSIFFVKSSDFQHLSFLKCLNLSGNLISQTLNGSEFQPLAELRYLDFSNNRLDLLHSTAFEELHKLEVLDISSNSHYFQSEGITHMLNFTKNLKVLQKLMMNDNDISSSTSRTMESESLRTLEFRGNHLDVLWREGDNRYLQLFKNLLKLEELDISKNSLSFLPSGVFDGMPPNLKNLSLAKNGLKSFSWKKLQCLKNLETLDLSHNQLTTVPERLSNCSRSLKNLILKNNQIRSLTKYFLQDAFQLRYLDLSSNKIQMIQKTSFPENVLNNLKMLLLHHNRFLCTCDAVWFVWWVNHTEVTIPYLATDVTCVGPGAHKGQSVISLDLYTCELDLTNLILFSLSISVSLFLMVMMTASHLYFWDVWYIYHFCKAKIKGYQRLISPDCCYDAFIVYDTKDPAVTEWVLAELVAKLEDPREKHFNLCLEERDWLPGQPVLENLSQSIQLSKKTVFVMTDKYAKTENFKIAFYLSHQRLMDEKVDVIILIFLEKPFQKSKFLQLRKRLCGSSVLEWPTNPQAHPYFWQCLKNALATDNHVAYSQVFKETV
Description: (§1) The Examples described were tested for biological activity in functional cellular assays using HEK293 cells stably overexpressing human TLR7 or TLR8. The assays tested for the ability of each Example to stimulate secretion of interferon alpha (IFNα) in human primary blood mono nuclear cells (PBMC).
(§2) To determine the ability of each Example to activate the human toll like receptor 7 (hTLR7) or human toll like receptor 8 (hTLR8), cell-based reporter systems were utilized. HEK293 cells stably overexpressing either hTLR7 or hTLR8 along with a reporter gene containing an optimized secreted embryonic alkaline phosphatase gene (SEAP), under the control of the IFN-b minimal promoter fused to five NF-κB and AP-1-binding sites, were obtained from Invivogen (HEK-Blue™ hTLR7, cat #Hkb-ht1r7; HEK-Blue™ hTLR8, cat #Hkb-ht1r8). Stimulation of hTLR7 or hTLR8 in these cells activates NF-κB and AP-1 and induces the production of SEAP which can be quantified using an alkaline phosphatase detection reagent.
(§3) Cells were maintained in Dulbecco's Modified Eagle Media (DMEM) (containing Fetal Bovine Serum (FBS) heat inactivated (10%), Glutamax (2 mM), Penicillin/Streptomycin, Blasticidin (10 μg/ml), Zeocin (100 μg/ml) and Normocin (100 μg/ml)). On day one of the assay, Examples were prepared using 11-point half-log serial dilutions from a 10mM DMSO stock solution and 50 nl was spotted into 384-well Viewplates (PerkinElmer, cat #6007480). Positive control TLR7/8 agonist and negative control (DMSO, no Example) were also spotted within the assay plate and were used to determine percent effect during the analysis process. After resuspension in DMEM assay media containing FBS heat inactivated (10%), Glutamax (2 mM) and Penicillin/Streptomycin, 10,000 cells/20 μl/well were added to previously prepared plates. Plates were incubated overnight (16-20 hrs) at 37° C. in a 5% CO2 environment. Prewetted Microclime lids (Labcyte, LLS-0310) were used to prevent evaporation. On day two of the assay, QUANTI-Blue™ detection reagent was prepared by reconstituting QUANTI-Blue™ powder (InvivoGen, Rep-qb1) with 100 ml of sterile water and allowed to equilibrate to 37° C. for 15 minutes. 20 μl of QUANTI-Blue™ detection reagent was added to each well and plates were incubated at room temperature for 180 min. At the end of the incubation, plates were read on an Envision (Perkin Elmer) plate reader capturing absorbance at 650 nm.
(§4) Using Positive (TLR7/8 agonist) and Negative (DMSO) controls, the percent (%) effect was calculated for each Example using the following equation: effect=100−[100*{(Example−Positive Control)/(Negative Control−Positive Control)}]
(§5) The % effect at each concentration of each Example was calculated utilizing the ABase software suite (IBDS) and was relative to the amount of SEAP produced in the positive and negative control wells contained within each assay plate. The concentrations and % effect values for each Example were fit using a 4-parameter logistic model in ABase and the concentration of each Example that produced 50% response (EC50) was calculated.

[2] = target: T2, human toll like receptor 8 (hTLR8) (Homo sapiens, UniProt Q9NR97); assay: hTLR8 cell functional assay (HEK-Blue hTLR8 SEAP reporter); assay type: cell-based; conditions: HEK293 cells stably overexpressing hTLR8, SEAP reporter; geometric mean when tested more than once
T2 construct: host or cells: HEK293 (HEK-Blue hTLR8)
T2 sequence (Q9NR97 27-1041): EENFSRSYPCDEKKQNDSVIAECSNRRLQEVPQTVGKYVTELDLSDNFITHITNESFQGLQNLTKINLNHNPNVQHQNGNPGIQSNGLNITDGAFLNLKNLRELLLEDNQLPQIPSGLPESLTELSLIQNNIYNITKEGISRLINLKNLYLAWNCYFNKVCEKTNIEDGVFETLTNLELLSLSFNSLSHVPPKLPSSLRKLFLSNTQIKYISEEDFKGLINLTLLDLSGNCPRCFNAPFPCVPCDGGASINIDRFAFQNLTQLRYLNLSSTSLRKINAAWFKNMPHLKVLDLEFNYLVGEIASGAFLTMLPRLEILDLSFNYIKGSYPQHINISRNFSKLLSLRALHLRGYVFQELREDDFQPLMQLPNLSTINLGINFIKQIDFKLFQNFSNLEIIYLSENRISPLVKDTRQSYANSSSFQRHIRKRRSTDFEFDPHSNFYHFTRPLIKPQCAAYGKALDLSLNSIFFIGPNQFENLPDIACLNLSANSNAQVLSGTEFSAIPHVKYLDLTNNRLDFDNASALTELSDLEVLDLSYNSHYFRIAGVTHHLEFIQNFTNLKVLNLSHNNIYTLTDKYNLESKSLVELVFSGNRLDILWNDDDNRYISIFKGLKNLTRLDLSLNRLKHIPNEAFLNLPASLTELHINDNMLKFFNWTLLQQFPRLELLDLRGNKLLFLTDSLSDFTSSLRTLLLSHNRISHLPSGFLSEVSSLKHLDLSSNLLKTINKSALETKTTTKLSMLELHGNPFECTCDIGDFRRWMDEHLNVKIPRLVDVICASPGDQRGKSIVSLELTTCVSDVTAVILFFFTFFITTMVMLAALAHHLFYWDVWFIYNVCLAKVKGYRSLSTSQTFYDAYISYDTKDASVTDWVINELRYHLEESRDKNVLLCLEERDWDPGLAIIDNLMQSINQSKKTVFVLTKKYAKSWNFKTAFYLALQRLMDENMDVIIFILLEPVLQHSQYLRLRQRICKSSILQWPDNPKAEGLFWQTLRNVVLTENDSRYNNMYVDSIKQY
Description: as §1, §2, §3, §4, §5

[3] = tested on: superficial basal cell carcinomas; conditions: marketed 5% cream (Aldara); cited from earlier work

EC50 [1] [nM] | EC50 [2] [nM] | SMILES | 5-year clearance of superficial basal cell carcinomas [3]
54 | 400 | CCOCc1nc2c(N)nc3c(c2n1CC(C)(CO)CO)CCC3 [Example 4, 2-((4-amino-2-(ethoxymethyl)-7,8-dihydrocyclopenta[b]imidazo[4,5-d]pyridin-1(6H)-yl)methyl)-2-methylpropane-1,3-diol] | 
42 | 273 | CCOCc1nc2c(N)nc3c(c2n1CC(C)(CO)CO)CCCC3 [Example 5, 2-((4-amino-2-(ethoxymethyl)-6,7,8,9-tetrahydro-1H-imidazo[4,5-c]quinolin-1-yl)methyl)-2-methylpropane-1,3-diol] | 
13 | 160 | CCCCc1nc2c(N)nc(C)c(C)c2n1CC(C)(CO)CO [Example 11, 2-((4-amino-2-butyl-6,7-dimethyl-1H-imidazo[4,5-c]pyridin-1-yl)methyl)-2-methylpropane-1,3-diol] | 
9 | 191 | CCCCCc1nc2c(N)nc3ccccc3c2n1CC(C)(CO)CO [Example 12, 2-((4-amino-2-pentyl-1H-imidazo[4,5-c]quinolin-1-yl)methyl)-2-methylpropane-1,3-diol] | 
156 | 1060 | COCCc1nc2c(N)nc3c(c2n1CC(C)(CO)CO)CCC3 [Example 17, 2-((4-amino-2-(2-methoxyethyl)-7,8-dihydrocyclopenta[b]imidazo[4,5-d]pyridin-1(6H)-yl)methyl)-2-methylpropane-1,3-diol] | 
16 | 119 | COCCc1nc2c(N)nc3c(c2n1CC(C)(CO)CO)CCCC3 [Example 18, 2-((4-amino-2-(2-methoxyethyl)-6,7,8,9-tetrahydro-1H-imidazo[4,5-c]quinolin-1-yl)methyl)-2-methylpropane-1,3-diol] | 
9 | 310 | COCCc1nc2c(N)nc3ccccc3c2n1CC(C)(CO)CO [Example 19, 2-((4-amino-2-(2-methoxyethyl)-1H-imidazo[4,5-c]quinolin-1-yl)methyl)-2-methylpropane-1,3-diol] | 
 |  | CC(C)Cn1cnc2c(N)nc3ccccc3c21 [Imiquimod] | approximately 80%
